The values below come from patent publication US9499538B2, “Estrogen receptor modulators and uses thereof” (Seragon Pharmaceuticals, Inc., priority 2012, dated 2016).

The test system of one assay is MCF-7 cells. The assay is described as follows: Breast Cancer Cell Viability Assays (MCF-7, CellTiter-Glo). In kind it is cell-based. The settings on record: 5 days' compound exposure; for IC50: Homo sapiens, MCF7, 120 h. The protocol:
MCF-7 cells were adjusted to a concentration of 20,000 cells per mL in RPMI containing 10% FBS and 20 mM HEPES. 16 microliters of the cell suspension (320 cells) was added to each well of a 384 well plate, and the cells were incubated overnight to allow the cells to adhere. The following day an eleven point, serial semilog dilution of each compound was added to the cells in 16 μL at a final concentration ranging from 0.3-0.000003 μM. After 5 days' compound exposure, 16 μL of CellTiter-GLo (Promega, Madison Wis.) was added to the cells, and the relative luminescence units (RLUs) of each well were determined. CellTiter-Glo added to 32 μL of medium without cells was used to obtain a background value. The Percent viability of each sample was determined as follows: (RLU sample−RLU background/RLU untreated cells−RLU background)×100=% viability. […]
Background: ATP-based viability assays read luminescence as a measure of living cells.

Another assay concerns the target T1, ER-α in MCF-7 cells (Homo sapiens, UniProt P03372).
T1 construct: endogenous in cells; host or cells: MCF-7
T1 sequence (P03372 1-595): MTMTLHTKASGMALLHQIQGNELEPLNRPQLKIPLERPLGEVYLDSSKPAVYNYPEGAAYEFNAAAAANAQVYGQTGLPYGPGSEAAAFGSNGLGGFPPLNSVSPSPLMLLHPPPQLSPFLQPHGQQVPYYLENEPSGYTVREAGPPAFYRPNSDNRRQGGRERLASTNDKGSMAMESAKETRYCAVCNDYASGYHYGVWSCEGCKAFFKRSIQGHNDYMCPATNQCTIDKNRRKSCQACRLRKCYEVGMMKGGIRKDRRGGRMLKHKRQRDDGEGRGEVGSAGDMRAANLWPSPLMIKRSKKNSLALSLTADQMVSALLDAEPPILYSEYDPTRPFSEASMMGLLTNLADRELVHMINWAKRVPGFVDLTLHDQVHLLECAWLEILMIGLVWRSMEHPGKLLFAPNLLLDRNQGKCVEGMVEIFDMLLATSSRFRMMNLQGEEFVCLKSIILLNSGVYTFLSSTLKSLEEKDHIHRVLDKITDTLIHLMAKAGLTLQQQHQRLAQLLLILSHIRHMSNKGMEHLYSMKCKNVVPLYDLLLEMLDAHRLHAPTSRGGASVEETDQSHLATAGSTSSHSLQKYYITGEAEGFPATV
The experiment in a line: Breast Cancer Cell ER-α In Cell Western Assay (SP1). The format is cell-based. Particulars: 4 or 24 hr post compound addition; for Emax: MCF7, SP1 antibody, read-out: ER-α In Cell Western Assay (SP1) Max Response; for DC50: SP1 antibody, read-out: ER-α In Cell Western Assay (SP1) IC50. The protocol: MCF-7 cells were adjusted to a concentration of 200,000 cells per mL in RPMI containing 10% charcoal-stripped FBS and 20 mM HEPES. 16 microliters of the cell suspension (3200 cells) was added to each well of a poly-D-lysine 384 well plate, and the cells were incubated overnight to allow the cells to adhere. The following day an eleven point, serial semilog dilution of each compound was added to the cells in 16 μL at a final concentration ranging from 0.3-0.000003 μM. At 4 or 24 hr post compound addition, the cells were fixed (10% formalin in PBS) for 20 minutes. Cells were permeablized in PBS 0.1% Triton and blocked with LICOR blocking buffer (50 μl/well, 90′). The wells were then incubated overnight at 4° C. with SP1 rabbit monoclonal Ab (Thermo Scientific) diluted 1:1000 in LICOR blocking buffer/0.1% Tween-20. Wells which were treated with blocking buffer with Tween but no antibody were used as a background control. Wells were washed with 0.1% Tween-20/PBS and then incubated in goat anti-rabbit IRDye™ 800CW (LICOR Inc.; 1:10000) and DRAQ5 DNA dye (1:2000 for 2 mM stock) diluted in LICOR blocking buffer containing 0.1% Tween-20 and 0.01% SDS for 60 minutes. Cells were washed (50 μl/well, 5′ each) in 0.1% Tween-20/PBS. Plates were scanned on a LICOR Odyssey infrared imaging system. Integrated intensities in the 800 nm channel and 700 nm channel were measured to determine levels of ER and DNA respectively. Percent ER levels were determined as follows: (Integrated intensity 800 nm sample/integrated intensity 700 nm sample)/(Integrated intensity 800 nm untreated cells/integrated intensity 700 nm untreated cells)×100=% ER levels. […]

With `O=C(O)/C=C/c1ccc(/C(=C(\c2ccccc2)C2CCC2)c2cccc3[nH]ncc23)cc1` [Example 18, (E)-3-(4-((E)-2-Cyclobutyl-1-(1H-indazol-4-yl)-2-phenylvinyl)phenyl)acrylic acid], in the assay with MCF-7 cells, the “MCF7 Viability Assay Max Response” value is “++ (++ = a single % value ≧ 40%)” and the IC50 (commonly the midpoint of a concentration-inhibition curve) was at most 100 nM. On ER-α in MCF-7 cells, the Emax was at least 40% and the DC50 was at most 100 nM.
Take `CC/C(=C(/c1ccc(/C=C/C(=O)O)cc1)c1ccc2scnc2c1C#N)c1ccccc1` [Example 19, (E)-3-(4-((E)-1-(4-Cyanobenzo[d]thiazol-5-yl)-2-phenylbut-1-en-1-yl)phenyl)acrylic acid]: in the assay on MCF-7 cells, the “MCF7 Viability Assay Max Response” value is “++ (++ = a single % value ≧ 40%)” and the 50% inhibitory concentration (IC50) is at most 100 nM. Also, at ER-α in MCF-7 cells, the Emax is at least 40% and the DC50 was at most 100 nM.
For `Cc1cscc1/C(=C(\c1ccc(/C=C/C(=O)O)cc1)c1ccc2scnc2c1)C(C)C` [Example 20, (E)-3-(4-((E)-1-(Benzo[d]thiazol-5-yl)-3-methyl-2-(4-methylthiophen-3-yl)but-1-en-1-yl)phenyl)acrylic acid], in the assay with MCF-7 cells, the “MCF7 Viability Assay Max Response” value is “++ (++ = a single % value ≧ 40%)” and the IC50 is at most 100 nM. Also, on ER-α in MCF-7 cells, the Emax is at least 40% and the DC50 was at most 100 nM.
Regarding `N#Cc1c(/C(=C(/c2ccccc2)C2CCC2)c2ccc(/C=C/C(=O)O)cc2)ccc2scnc12` [Example 21, (E)-3-(4-((E)-1-(4-Cyanobenzo[d]thiazol-5-yl)-2-cyclobutyl-2-phenylvinyl)phenyl)acrylic acid], in the assay with MCF-7 cells, the “MCF7 Viability Assay Max Response” value is on record as “++ (++ = a single % value ≧ 40%)” and the half-inhibitory concentration (IC50) was at most 100 nM. For the same molecule, at ER-α in MCF-7 cells, the Emax is at least 40% and the DC50 was at most 100 nM.
Take `O=C(O)/C=C/c1ccc(/C(=C(\c2ccccc2)C2CCC2)c2cc(F)c3[nH]ncc3c2F)cc1` [Example 22, (E)-3-(4-((E)-2-Cyclobutyl-1-(4,7-difluoro-1H-indazol-5-yl)-2-phenylvinyl)phenyl)acrylic acid]: in the assay on MCF-7 cells, the “MCF7 Viability Assay Max Response” value is given as “++ (++ = a single % value ≧ 40%)” and the IC50 is over 100 nM. At ER-α in MCF-7 cells, the Emax was at least 40% and the DC50 was over 100 nM.
Take `COc1ccc(/C(=C(\c2ccc(/C=C/C(=O)O)cc2)c2ccc3[nH]nc(F)c3c2)C2CCC2)cc1` [Example 23, (E)-3-(4-((E)-2-Cyclobutyl-1-(3-fluoro-1H-indazol-5-yl)-2-(4-methoxyphenyl)vinyl)phenyl)acrylic acid]: in the assay on MCF-7 cells, the “MCF7 Viability Assay Max Response” value is “++ (++ = a single % value ≧ 40%)” and the IC50 is at most 100 nM. Moreover, on ER-α in MCF-7 cells, the Emax was at least 40% and the DC50 is at most 100 nM.
For the molecule `COc1cccc(/C(=C(\c2ccc(/C=C/C(=O)O)cc2)c2ccc3[nH]nc(F)c3c2)C2CCC2)c1` [Example 24, (E)-3-(4-((E)-2-Cyclobutyl-1-(3-fluoro-1H-indazol-5-yl)-2-(3-methoxyphenyl)vinyl)phenyl)acrylic acid], in the assay with MCF-7 cells, the “MCF7 Viability Assay Max Response” value was “++ (++ = a single % value ≧ 40%)” and the IC50 was at most 100 nM. Moreover, on ER-α in MCF-7 cells, the Emax was at least 40% and the DC50 was at most 100 nM.
For `O=C(O)/C=C/c1ccc(/C(=C(\c2ccccc2)C2CCC2)c2ccc3[nH]ncc3c2F)cc1` [Example 25, (E)-3-(4-((E)-2-Cyclobutyl-1-(4-fluoro-1H-indazol-5-yl)-2-phenylvinyl)phenyl)acrylic acid], in the assay on MCF-7 cells, the “MCF7 Viability Assay Max Response” value was “++ (++ = a single % value ≧ 40%)” and the IC50 is at most 100 nM. At ER-α in MCF-7 cells, the Emax was at least 40% and the DC50 is at most 100 nM.
For the molecule `O=C(O)/C=C/c1ccc(/C(=C(\c2ccccc2)C2CC2)c2ccc3[nH]nc(F)c3c2)cc1` [Example 26, (E)-3-(4-((E)-2-Cyclopropyl-1-(3-fluoro-1H-indazol-5-yl)-2-phenylvinyl)phenyl)acrylic acid], in the assay with MCF-7 cells, the “MCF7 Viability Assay Max Response” value is on record as “++ (++ = a single % value ≧ 40%)” and the IC50 was at most 100 nM. Moreover, at ER-α in MCF-7 cells, the Emax was at least 40% and the DC50 was at most 100 nM.
Regarding `O=C(O)/C=C/c1ccc(/C(=C(\c2ccccc2)C2CCC2)c2ccc3[nH]c(=O)oc3c2)cc1` [Example 27, (E)-3-(4-((E)-2-Cyclobutyl-1-(2-oxo-2,3-dihydrobenzo[d]oxazol-6-yl)-2-phenylvinyl)phenyl)acrylic acid], in the assay with MCF-7 cells, the “MCF7 Viability Assay Max Response” value is recorded as “++ (++ = a single % value ≧ 40%)” and the 50% inhibitory concentration (IC50) is at most 100 nM. In addition, at ER-α in MCF-7 cells, the Emax is at least 40% and the DC50 is at most 100 nM.
`O=C(O)/C=C/c1ccc(/C(=C(\c2ccc(F)cc2Cl)C2CCC2)c2ccc3[nH]c(=O)oc3c2)cc1` [Example 28, (E)-3-(4-((E)-2-(2-Chloro-4-fluorophenyl)-2-cyclobutyl-1-(2-oxo-2,3-dihydrobenzo[d]oxazol-6-yl)vinyl)phenyl)acrylic acid]: in the assay with MCF-7 cells, the “MCF7 Viability Assay Max Response” value is “++ (++ = a single % value ≧ 40%)” and the IC50 is at most 100 nM. Also, at ER-α in MCF-7 cells, the Emax was at least 40% and the DC50 is at most 100 nM.
As for `Cc1ccccc1/C(=C(\c1ccc(/C=C/C(=O)O)cc1)c1ccc2[nH]nc(F)c2c1)C1CC1` [Example 29, (E)-3-(4-((E)-2-Cyclopropyl-1-(3-fluoro-1H-indazol-5-yl)-2-(o-tolyl)vinyl)phenyl)acrylic acid], in the assay on MCF-7 cells, the “MCF7 Viability Assay Max Response” value is reported as “++ (++ = a single % value ≧ 40%)” and the 50% inhibitory concentration (IC50) was at most 100 nM. On ER-α in MCF-7 cells, the Emax is at least 40% and the DC50 was at most 100 nM.
With `COc1ccc(/C(=C(\c2ccc(/C=C/C(=O)O)cc2)c2ccc3[nH]nc(F)c3c2)C2CC2)cc1` [Example 30, (E)-3-(4-((E)-2-Cyclopropyl-1-(3-fluoro-1H-indazol-5-yl)-2-(4-methoxyphenyl)vinyl)phenyl)acrylic acid], in the assay with MCF-7 cells, the “MCF7 Viability Assay Max Response” value was “++ (++ = a single % value ≧ 40%)” and the IC50 is at most 100 nM. Further, on ER-α in MCF-7 cells, the Emax is at least 40% and the DC50 is at most 100 nM.
For the molecule `COc1cccc(/C(=C(\c2ccc(/C=C/C(=O)O)cc2)c2ccc3[nH]nc(F)c3c2)C2CC2)c1` [Example 31, (E)-3-(4-((E)-2-Cyclopropyl-1-(3-fluoro-1H-indazol-5-yl)-2-(3-methoxyphenyl)vinyl)phenyl)acrylic acid], in the assay on MCF-7 cells, the “MCF7 Viability Assay Max Response” value is “++ (++ = a single % value ≧ 40%)” and the IC50 is at most 100 nM. In addition, at ER-α in MCF-7 cells, the Emax is at least 40% and the DC50 was at most 100 nM.
For `CC/C(=C(/c1ccc(/C=C/C(=O)O)cc1)c1cc(F)c2[nH]ncc2c1F)c1ccccc1` [Example 32, (E)-3-(4-((E)-1-(4,7-Difluoro-1H-indazol-5-yl)-2-phenylbut-1-en-1-yl)phenyl)acrylic acid], in the assay on MCF-7 cells, the “MCF7 Viability Assay Max Response” value is “++ (++ = a single % value ≧ 40%)” and the concentration for half-maximal inhibition (IC50) is over 100 nM. On ER-α in MCF-7 cells, the Emax was at least 40% and the DC50 was over 100 nM.
Turning to `O=C(O)/C=C/c1ccc(/C(=C(\c2ccccc2)C2CCC2)c2ccc3[nH]ncc3n2)cc1` [Example 33, (E)-3-(4-((E)-2-Cyclobutyl-2-phenyl-1-(1H-pyrazolo[4,3-b]pyridin-5-yl)vinyl)phenyl)acrylic acid], in the assay on MCF-7 cells, the “MCF7 Viability Assay Max Response” value is “++ (++ = a single % value ≧ 40%)” and the IC50 was at most 100 nM. In addition, at ER-α in MCF-7 cells, the Emax is at least 40% and the DC50 is at most 100 nM.
